Experimental findings from patent US20110217265A1, “Screening for Inhibitors of HCV Amphipathic Helix (AH) Function” (priority 2008, published 2011) are described below.

For one data set, the system named is 2a HCV RNA replicon. As to the kind of experiment: 2a HCV RNA replicon assay (FL-J6/JFH-5'C19Rluc2AUbi, luciferase). The class given is cell-based, Hepatitis C Virus genotype 2a. The conditions noted are these: Hepatitis C virus, read-out: 2a (%) Percent of virus activity remaining in the presence of the compound. The text has this: Plasmids. Bart79I, a high-efficiency subgenomic replicon of HCV (28), harbors the neomycin resistance gene (neo) and the HCV nonstructural proteins. The Bart-Luciferase plasmid, Bart79I-luc, was cloned from the Bart791 parent (29) and the pGL3-Basic parent (Promega). In brief, a NotI site was introduced after the 15th amino acid of Core in Bart791 using PCR mutagenesis. The plasmid pcDNA3.1-NS4B, which encodes the Con1 NS4B sequence and was used to study the protein stability of the wild type and mutant NS4Bs, was described previously. To introduce the M2 mutation into the 4BAH2 of plasmids encoding HCV replicons or NS4B, the nucleotide sequence GCG that encodes for alanine at NS4B amino acid position 51 was changed to GAG (encoding for glutamate) and the nucleotide sequence TGG that encodes for tryptophan at amino acid position 55 was changed to GAT (encoding for aspartate) through the use of Quick-ChangeTMXL site-directed mutagenesis kit (Stratagene, La Jolla, Calif.) as described by the manufacturer and confirmed by sequencing. FL-J6/JFH-5′C19Rluc2AUbi, which is a monocistronic, full-length HCV genome that expresses Renilla luciferase (Rluc) and was derived from the previously described infectious genotype 2a HCV genome J6/JFH1.
(§1) Antiviral Assays of Compounds. Subconfluent Huh7.5 cells were trypsinized and collected by centrifugation at 700 g for 5 min. The cells were then washed three times in ice-cold RNasefree PBS buffer (BioWhittaker) and resuspended at 1.5×10^7 cells·ml^−1 in PBS buffer. Wild-type FL-J6/JFH-5′C19Rluc2AUbi and Bart79I-luc RNAs for electroporation were generated by in vitro transcription of XbaI (FL-J6/JFH-5′C19Rluc2AUbi) and ScaI (Bart791-luc)-linearized DNA templates using the T7 MEGAscript kit (Ambion), followed by phenol-chloroform purification and DEPC water suspension, 5 μg of RNA were mixed with 400 μl of washed Huh7.5 cells in a 2-mm-gap cuvette (BTX) and immediately pulsed (0.82 kV (FL-J6/JFH-5′C19Rluc2AUbi) and 0.68 kV (Bart79I-luc), five […] pulses) with a BTX-830 electroporator. After 10 min recovery at 25° C., pulsed cells were diluted into 20 ml of pre-warmed growth medium. Cells from several electroporations were pooled to a common stock and seeded in 96-well plates (17,000-20,000 cells per well). After 24 hr, compounds were added to the cells and media changes were performed daily with fresh compounds. After 72 hr of treatment, cells were incubated for 2 hr at 37° C. in the presence of 10% Alamar Blue reagent (TREK Diagnostic Systems) to assess for cytotoxicity. Plates were then scanned and fluorescence was detected by using a FLEXstation II 384 (Molecular Devices). The signal was normalized relative to untreated samples. Viral RNA replication was determined using Renilla (FL-J6/JFH-5′C19Rluc2AUbi) or firefly (Bart791-luc) luciferase assays, according to the manufacturer's (Promega) directions. The same samples subjected to the viability assay described below were analyzed in this assay. According to the manufacturer protocol, cells were washed with PBS buffer and shaken at room temperature for 15 min in 20 μl of lysis buffer. Reporter assays were performed directly in the wells of the culture plates by injecting 100 μl of the assay substrate into each well. Luminescence was measured over 10 seconds with a 2-second delay using a Berthold LB 96 V luminometer. Signal was normalized relative to untreated samples or samples grown in the presence of the corresponding concentration of DMSO. Experiments were repeated three times, each time with 4 replicates.
In general terms: In antiviral work, replicon cells carry a viral genome segment that copies itself.

A further data set has as its system Huh7.5 cells. As to the kind of experiment: Alamar Blue cell viability assay. The class given is cell-based, human. On the procedure:
as §1, with “Plates were then scanned and fluorescence was detected by using a FLEXstation II 384 (Molecular Devices).” left out
(Alamar Blue is a resazurin reagent that responds to reducing activity.)

With `CC(C)CN(C)c1nc(N)c(C(=O)NCc2ccsc2)nc1Cl.Cl` [ID 148, 3-amino-6-chloro-5-(isobutyl(methyl)amino)-N-(thiophen-3-ylmethyl)pyrazine-2-carboxamide hydrochloride], in the data set on 2a HCV RNA replicon, the activity at 5 µM worked out at 69% and the activity at 10 µM stood at 53%. In the data set with Huh7.5 cells (5 μM), the “Cell Viability (%), alamar blue” value came to 99%. The “Cell Viability (%), alamar blue” value in the data set with Huh7.5 cells (10 μM) was determined as 90%.
For the compound `CC(C)CN(C)c1nc(N)c(C(=O)NCc2nccs2)nc1Cl.Cl` [ID 149, 3-amino-6-chloro-5-(isobutyl(methyl)amino)-N-(thiazol-2-ylmethyl)pyrazine-2-carboxamide hydrochloride], in the data set with 2a HCV RNA replicon, the activity at 5 µM is 68% and the activity at 10 µM was found to be 50%. For the same compound, the “Cell Viability (%), alamar blue” value with Huh7.5 cells (5 μM) is >100%. In the data set on Huh7.5 cells (10 μM), the “Cell Viability (%), alamar blue” value was >100%.
With `CC(C)CN(C)c1nc(N)c(C(=O)NCc2cccs2)nc1Cl` [ID 150, 3-amino-6-chloro-5-(isobutyl(methyl)amino)-N-(thiophen-2-ylmethyl)pyrazine-2-carboxamide 2,2,2-trifluoroacetate], in the data set on 2a HCV RNA replicon, the activity at 5 µM was found to be 65% and the activity at 10 µM was determined as 48%. In the data set with Huh7.5 cells (5 μM), the “Cell Viability (%), alamar blue” value was >100%. Further, the “Cell Viability (%), alamar blue” value in the data set with Huh7.5 cells (10 μM) is recorded as 77%.
The like results for `CC(C)CN(C)c1nc(N)c(C(=O)Nc2ccon2)nc1Cl.Cl` [ID 200, 3-amino-6-chloro-5-(isobutyl(methyl)amino)-N-(isoxazol-3-yl)pyrazine-2-carboxamide hydrochloride] were, in that order, 77%, 65%, 96% and 96%.
The like results for `CC(C)CN(C)c1nc(N)c(C(=O)Nc2ccccn2)nc1Cl.Cl` [ID 201, 3-amino-6-chloro-5-(isobutyl(methyl)amino)-N-(pyridin-2-yl)pyrazine-2-carboxamide hydrochloride] were, in that order, 74%, 48%, >100% and 92%.
On the same counts, the results for `CC(C)CN(C)c1nc(N)c(C(=O)Nc2ccncc2)nc1Cl.Cl` [ID 203, 3-amino-6-chloro-5-(isobutyl(methyl)amino)-N-(pyridin-4-yl)pyrazine-2-carboxamide hydrochloride] are 68%, 59%, 92% and 90%.
With `CC(C)CN(C)c1nc(N)c(C(=O)NCc2ccccn2)nc1Cl.Cl` [ID 204, 3-amino-6-chloro-5-(isobutyl(methyl)amino)-N-(pyridin-2-ylmethyl)pyrazine-2-carboxamide hydrochloride], the activity at 5 µM in the data set with 2a HCV RNA replicon amounted to 66%. The activity at 10 µM in the data set on 2a HCV RNA replicon stood at 60%. The “Cell Viability (%), alamar blue” value in the data set on Huh7.5 cells (5 μM) was >100%; in the data set on Huh7.5 cells (10 μM), 99%.
The like results for `CC(C)CN(C)c1nc(N)c(C(=O)Nc2nncs2)nc1Cl.Cl` [ID 205, 3-amino-6-chloro-5-(isobutyl(methyl)amino)-N-(1,3,4-thiadiazol-2-yl)pyrazine-2-carboxamide hydrochloride] were, in that order, 42%, 17%, 88% and 67%.
On the same counts, the results for `Cc1ccncc1NC(=O)c1nc(Cl)c(N(C)CC(C)C)nc1N.Cl` [ID 235, 3-amino-6-chloro-5-(isobutyl(methyl)amino)-N-(4-methylpyridin-3-yl)pyrazine-2-carboxamide hydrochloride] are 48%, 22%, 84% and 68%.
In the case of `Cc1cc(NC(=O)c2nc(Cl)c(N(C)CC(C)C)nc2N)no1.Cl` [ID 236, 3-amino-6-chloro-5-(isobutyl(methyl)amino)-N-(5-methylisoxazol-3-yl)pyrazine-2-carboxamide hydrochloride], in the data set on 2a HCV RNA replicon, the activity at 5 µM was 92% and the activity at 10 µM was found to be 51%. Besides, the “Cell Viability (%), alamar blue” value in the data set with Huh7.5 cells (5 μM) stood at 96%. In addition, the “Cell Viability (%), alamar blue” value in the data set on Huh7.5 cells (10 μM) is given as 78%.
The like results for `Cc1cc(NC(=O)c2nc(Cl)c(N(C)CC(C)C)nc2N)cnc1Cl` [ID 291, 3-amino-6-chloro-N-(6-chloro-5-methylpyridin-3-yl)-5-(isobutyl(methyl)amino)pyrazine-2-carboxamide bis(2,2,2-trifluoroacetate)] were, in that order, 59%, 21%, 79% and 53%.
On the same counts, the results for `COc1cc(C)c(NC(=O)c2nc(Cl)c(N(C)CC(C)C)nc2N)cn1` [ID 294, 3-amino-6-chloro-5-(isobutyl(methyl)amino)-N-(6-methoxy-4-methylpyridin-3-yl)pyrazine-2-carboxamide bis(2,2,2-trifluoroacetate)] are 58%, 22%, 100% and 68%.
The like results for `CC(C)CN(C)c1nc(N)c(C(=O)Nc2ccccc2)nc1Cl` [ID 295, 3-amino-6-chloro-5-(isobutyl(methyl)amino)-N-phenylpyrazine-2-carboxamide] were, in that order, 65%, 47%, >100% and 90%.
For `Cc1cncc(NC(=O)c2nc(Cl)c(N(C)CC(C)C)nc2N)c1` [ID 296, 3-amino-6-chloro-5-(isobutyl(methyl)amino)-N-(5-methylpyridin-3-yl)pyrazine-2-carboxamide bis(2,2,2-trifluoroacetate)], in the data set on 2a HCV RNA replicon, the activity at 5 µM is 52% and the activity at 10 µM was found to be 18%. For the same compound, the “Cell Viability (%), alamar blue” value in the data set with Huh7.5 cells (5 μM) turned out to be 100%. Moreover, the “Cell Viability (%), alamar blue” value in the data set with Huh7.5 cells (10 μM) was determined as 76%.
